Source: patent publication US11623940B2, “Methods of nucleic acid synthesis comprising polyphosphate containing species” (Nuclera Nucleics Ltd., priority 2017, dated 2023)
“Also recorded” adds a separate entry of the source.

How the values were obtained:
terminal transferase [1] = assay: Terminal transferase-mediated addition of capping polyphosphate species to initiator strand (denaturing polyacrylamide gel); format: biochemical; details: for conversion of initiator strand of length N by terminal transferase-mediated addition: FIG. 1 lanes 2 and 3
From the text: (§1) FIG. 1: Incorporation of dideoxynucleoside triphosphates by a terminal transferase prevents subsequent DNA synthesis. Lane 1: initiator sequence; Lane 2: dideoxyadenosine triphosphate addition; Lane 3: dideoxythymidine triphosphate addition; Lanes 4-6: duplicates of lanes 1-3 exposed to dCTP tailing conditions; Lane 7: initiator sequence. While dCTP tailing leads to the formation of a range of higher molecular weight products (Lane 4), prior treatment with a terminal transferase and dideoxynucleoside triphosphate prevents the formation of such higher molecular weight species (Lanes 5 and 6).
FIG. 2: Incorporation of tripolyphosphate by a terminal transferase prevents subsequent DNA synthesis. Lane 1: initiator sequence; Lane 2: 1 mM sodium tripolyphosphate; Lane 3: 10 mM sodium tripolyphosphate; Lane 4: 50 mM sodium tripolyphosphate; Lanes 5-7: duplicates of lanes 2-4 exposed to dCTP tailing conditions. Reaction products were analysed by denaturing polyacrylamide gel and visualized by an internal FAM dye.
(§2) Data is presented herein which exemplifies the utility of dideoxynucleoside triphosphates as a capping agent by incorporating a dideoxynucleotide using a terminal transferase, and so preventing polymerization of deoxycytidine triphosphate (dCTP) in a subsequent step with terminal transferase (FIG. 1). […] When the initiator strand is exposed to terminal transferase in the presence of dCTP, many higher molecular weight products are formed (a smear on the gel) due to the uncontrolled incorporation of dCTP into the initiator strand (lane 4). […] Lane 7 is a duplicate of lane 1.
(§3) Data is presented herein which exemplifies the utility of tripolyphosphate as a capping agent by incorporating a phosphate moiety on the 3′-terminus of an oligonucleotide using a terminal transferase, and so preventing polymerization of dCTP in a subsequent step with terminal transferase (FIG. 2). […] The new species migrates faster on the polyacrylamide gel due to the additional charge presented by the new 3′-phosphate moiety. […] Following incubation with the terminal transferase and tripolyphosphate, the mixture was removed. The initiator strand was then incubated with a terminal transferase and canonical dCTP. If a free 3′-hydroxyl is present, terminal transferase will add many dCTP in an uncontrolled fashion to generate higher molecular weight oligonucleotides.

terminal transferase [2] = assay: dCTP tailing with terminal transferase after capping pre-treatment of initiator strand (gel); format: biochemical; details: for incorporation of dCTP into pre-treated initiator strand when exposed to terminal transferase and dCTP: FIG. 1 lanes 5 and 6, pre-treated with dideoxynucleoside triphosphate
From the text: as §1
FIG. 2: Incorporation of tripolyphosphate by a terminal transferase prevents subsequent DNA synthesis. […] Reaction products were analysed by denaturing polyacrylamide gel and visualized by an internal FAM dye.
as §2, §3

Compound	terminal transferase mediated 3′-phosphorylation of initiator strand (terminal transferase [1]; 1 mM tripolyphosphate, FIG. 2 lane 2)	terminal transferase mediated 3′-phosphorylation of initiator strand (terminal transferase [1]; 5 mM tripolyphosphate, FIG. 2 lane 3)	terminal transferase mediated 3′-phosphorylation of initiator sequence (terminal transferase [1]; 10 mM sodium tripolyphosphate, FIG. 2 lane 3 (figure legend))	terminal transferase mediated 3′-phosphorylation of initiator strand (terminal transferase [1]; 50 mM tripolyphosphate, FIG. 2 lane 4)	dCTP polymerization by terminal transferase after capping pre-incubation (terminal transferase [2]; pre-incubation with 1 mM tripolyphosphate, FIG. 2 lane 5)	dCTP polymerization by terminal transferase after capping pre-incubation (terminal transferase [2]; pre-incubation with 5 mM tripolyphosphate, FIG. 2 lane 6)	dCTP polymerisation by terminal transferase after capping pre-incubation (terminal transferase [2]; pre-incubation with 10 mM sodium tripolyphosphate, FIG. 2 lane 6 (figure legend))	dCTP polymerization by terminal transferase after capping pre-incubation (terminal transferase [2]; pre-incubation with 50 mM tripolyphosphate, FIG. 2 lane 7)	conversion of initiator strand of length N by terminal transferase-mediated addition (terminal transferase [1])	incorporation of dCTP into pre-treated initiator strand when exposed to terminal transferase and dCTP (terminal transferase [2])
sodium tripolyphosphate	partially converted to a new 3′-phosphorylated species; also recorded: converted to a 3′-phosphorylated initiator sequence	partially converted to a new 3′-phosphorylated species	converted to a 3′-phosphorylated initiator sequence	does not proceed	largely prevents this polymerization; also recorded: resistant to enzyme mediated DNA polymerisation	largely prevents this polymerization	resistant to enzyme mediated DNA polymerisation	complete polymerization to higher molecular weight species	–	–
dideoxythymidine triphosphate [ddTTP]	–	–	–	–	–	–	–	–	converted to an N+1 species	resistant to incorporation of dCTP
Nc1ncnc2c1ncn2[C@H]1CC[C@@H](COP(=O)(O)OP(=O)(O)OP(=O)(O)O)O1 [ddATP, dideoxyadenosine triphosphate]	–	–	–	–	–	–	–	–	converted to an N+1 species	resistant to incorporation of dCTP
